The values that follow come from PubChem BioAssay (NCI).

Values joined by “and” are separate entries in the source; they are usually repeats but may differ in a detail not shown here. Equal values may be shown once.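 Following 48 hours of exposure in 96-well plates, responses at five concentrations were used to interpolate endpoints linearly. Abbreviation: GI50, concentration required for 50% inhibition of growth. TGI: total growth inhibition.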

Holding throughout (assay): NCI tumour cell line growth inhibition, 48 h
In assay [1] the test system is HT29 colon.
Assay [2] concerns HOP-92 NSCLC.
In assay [3] the test system is UO-31 renal.
Assay [4] relates to HCT-116 colon.
Assay [5] has as its system CAKI-1 renal.
Assay [6] deals with OVCAR-4 ovarian.
Assay [7] concerns CCRF-CEM leukemia.
Assay [8] deals with TK-10 renal.
The subject of assay [9] is MALME-3M melanoma.
The test system of assay [10] is UACC-257 melanoma.

On to `N#CC(/C(=N\NC(N)=S)C(=O)NC1C2CC3CC(C2)CC1C3)c1ccc(Cl)cc1` (centres undefined), for which the TGI in assay [1], in [2], in [3], in assay [4], in assay [5] and in [6] was > 100 µM in each case. For the same molecule, the TGI in assay [7], in [8], in assay [9] and in assay [10] was > 100 µM in each case.
As to `O=C(O)CCN1C(=O)/C(=C/C(Cl)=C/c2ccccc2)SC1=S`, the GI50 is 2.57 µM in assay [1]; 4.35 µM in assay [2]; 1.56 µM in assay [3]; 1.82 µM in assay [4]; 2.2 µM in assay [5]; 4.79 µM in [6]. Besides, the GI50 in [7] is 1.87 µM; in assay [8], 4.19 µM; in assay [9], 2.22 µM; in assay [10], 1.96 µM. The TGI is 5.88 µM in assay [1]; 12.5 µM in assay [2]; 3.06 µM in [3]; 5.06 µM in [4]; 5.62 µM in assay [5]; 18 µM in [6]. The TGI in assay [7] was found to be 8.25 µM; in [8], 9.59 µM; in assay [9] it was 5.23 µM; in assay [10], 7.81 µM.
For `S=C1OC2C3C4CC5C3C(O1)C1C5C4C21` (centres undefined), the TGI in assay [1], in assay [2], in assay [3], in assay [4], in assay [5] and in assay [6] was > 100 µM throughout. For the same molecule, the TGI in [7], in assay [8], in [9] and in [10] was > 100 µM each time.
Consider `O=C1CCC(c2ccccc2)(c2ccccc2)CC1`, for which the TGI in [1], in [2], in assay [3], in assay [4], in assay [5] and in [6] was > 100 µM each time. Moreover, the TGI is 52 µM in [7], > 100 µM in assay [8], > 100 µM in assay [9] and > 100 µM in [10].
With `C[C@@H]1CC[C@H]2C(CN3CCN(CC4=C(C(F)(F)F)O[C@@H]5O[C@@]6(C)CC[C@H]7[C@H](C)CC[C@@H]4[C@@]57OO6)CC3)=C(C(F)(F)F)O[C@@H]3O[C@@]4(C)CC[C@@H]1[C@]32OO4`, the GI50 is 1.42 µM in assay [1]; 5.15 µM in assay [2]; 2.67 µM in assay [3]; 0.262 µM in assay [4]; 3.16 µM in [5]; 3.17 µM in assay [6]. Besides, the GI50 in assay [7] is 0.605 µM; in assay [8], 4.2 µM; in [9], 2.23 µM; in [10], 1.95 µM. The TGI in assay [1] was > 100 µM; in assay [2], > 100 µM; in assay [3], 85.8 µM; in assay [4], > 35.9 µM; in [5], > 33.5 µM; in assay [6], > 100 µM. Besides, the TGI was > 100 µM in [7], 99.7 µM in assay [8], > 25.8 µM in assay [9] and > 31.5 µM in assay [10].
Take `COC(=N)/C(=C1\OC(N)=C(c2ccc(Cl)cc2)C1=O)c1ccc(Cl)cc1`: the TGI in assay [1], in [2], in [3], in assay [4], in assay [5] and in assay [6] was > 100 µM each time. Also, the TGI in [7], in assay [8], in assay [9] and in [10] was > 100 µM throughout.
As to `CCNC1=CC(=O)c2ncccc2C1=O`, the GI50 in assay [1] is 2.82 µM; in assay [2] it was 10.3 µM; in assay [3] it was 1.76 µM; in assay [4], 3 µM; in [5], 7.5 µM; in assay [6] it was 1.64 µM. The GI50 was 6.14 µM in [7], 15.6 µM in assay [8], 1.03 µM in assay [9] and 1.42 µM in assay [10]. The TGI was found to be 6.59 µM in [1]; 25.3 µM in [2]; 7.72 µM in assay [3]; 9.7 µM in [4]; 21.1 µM in assay [5]; 8.12 µM in assay [6]. Moreover, the TGI amounted to 42.4 µM in [7], 29.7 µM in assay [8], 2.23 µM in [9] and 3 µM in [10].
For the molecule `CC(Cl)CC(=O)Nc1ccc2c(c1)oc(=O)c1cc(NC(=O)CC(C)Cl)ccc12` (centres undefined), the GI50 is 12.2 µM in [1]; 2.09 µM in assay [2]; 13.3 µM in assay [3]; 12.4 µM in assay [4]; 19.7 µM in [5]; 11.3 µM in assay [6]. The GI50 in assay [7] is 11.1 µM; in [8], 10.1 µM; in assay [9] it was 4.28 µM; in [10] it was 23.2 µM. The TGI is 34.5 µM in assay [1]; 10.7 µM in [2]; 69.4 µM in assay [3]; 40 µM in assay [4]; > 100 µM in assay [5]; 29.4 µM in [6]. For the same molecule, the TGI is 29 µM in assay [7], 23.8 µM in assay [8], 21.3 µM in [9] and 76.2 µM in assay [10].
On to `O=c1c2c(=NCCCN3CCCC3)cc3c(=O)n(CCCN4CCCC4)c(=O)c4c(NCCCN5CCCC5)cc(c(O)n1CCCN1CCCC1)c2c4-3`, for which the GI50 in assay [1] is 1.51 µM; in [2], 2.15 µM; in assay [3], 4.5 µM; in assay [4] it was 2.01 µM; in assay [5], 10.6 µM; in assay [6] it was 2.73 µM. Moreover, the GI50 in [7] was 5.22 µM; in [8], 2.22 µM; in assay [9], 2.73 µM; in assay [10] it was 2.98 µM. Further, the TGI in [1] came out at 6.49 µM; in [2], 18.8 µM; in [3] it was 22 µM; in assay [4] it was 6.43 µM; in [5], 42 µM; in assay [7], 71 µM. For the same molecule, the TGI in assay [8] came to 8.65 µM; in assay [9], 7.98 µM; in [10] it was 8.77 µM.
On to `CCn1cc(C2NC(=O)c3cc(F)ccc3N2)c2cccc(Cl)c21` (centres undefined), for which the GI50 was 0.276 µM in assay [1]; > 24.4 µM in assay [2]; 2.88 µM in [3]; 0.177 µM in assay [4]; 0.196 µM in assay [5]; 2.53 µM in assay [6]. For the same molecule, the GI50 in assay [7] was 0.172 µM; in [8], > 100 µM; in assay [9], 2.55 µM; in assay [10], > 100 µM. The TGI in [1], in assay [2], in assay [3], in assay [4], in assay [5] and in assay [6] was > 100 µM each time. Besides, the TGI in assay [7] was > 50.3 µM; in [8], > 100 µM; in assay [9], > 100 µM; in [10], > 100 µM.
As to `O=C1C=Cc2noc3cccc1c23`, the TGI was determined as 79.7 µM in [1]; 5.22 µM in assay [2]; 15.3 µM in assay [3]; 4.47 µM in [4]; 25.4 µM in assay [5]; 4.82 µM in [6]. The TGI was determined as 5.35 µM in assay [7], 32.3 µM in [8], 25.7 µM in assay [9] and 26.4 µM in [10].
Regarding `Cn1cc(/C=C2\C(=O)Nc3cccnc32)c2ccccc21`, the GI50 in [1] was 13.1 µM; in assay [2], 2.51 µM; in [3], 4.86 µM; in assay [4], 14.7 µM; in assay [5], 10.2 µM; in [6] it was 24.8 µM. The GI50 in [7] was 16 µM; in assay [8], 12.3 µM; in [9] it was 24.5 µM; in assay [10], 13.9 µM. In addition, the TGI in [1] was > 25 µM; in assay [2], 24.8 µM; in [3], > 25 µM; in assay [4], > 25 µM; in assay [5], > 25 µM; in assay [6] it was > 25 µM. Besides, the TGI in assay [7], in [8], in assay [9] and in assay [10] was > 25 µM throughout.
On to `Cc1cc(I)cc(CN(C)CCCCN2CCCC2)c1O`, for which the GI50 is 5.7 µM in [1]; 15.3 µM in assay [2]; 28.2 µM in [3]; 13.1 µM in assay [4]; 17.5 µM in assay [5]; 41.6 µM in [6]. The GI50 in assay [7] is 31.3 µM; in assay [8], 20.8 µM; in [9], 19.7 µM; in assay [10] it was 16.6 µM. For the same molecule, the TGI was 22 µM in assay [1]; 70.2 µM in [2]; > 100 µM in assay [3]; 40 µM in assay [4]; 38.9 µM in [5]; > 100 µM in [6]. Further, the TGI in assay [7] was > 100 µM; in assay [8] it was 50.7 µM; in [9], 36.1 µM; in assay [10], 32.8 µM.
In the case of `CC(C)S(=O)(=O)n1c(N)nc2ccc(/C(=N/O)c3ccccc3)cc21`, the TGI in [1] is 36.8 µM; in [2], 41.1 µM; in [3], 47 µM; in assay [4], 40.2 µM; in [5], 76.9 µM; in assay [6] it was > 100 µM. In addition, the TGI in assay [7] is 57.2 µM; in assay [8] it was > 100 µM; in assay [9] it was > 100 µM; in [10] it was > 100 µM.
In the case of `OCC1CC2CC1C1(C2)OCCO1` (centres undefined), the TGI in assay [1], in assay [2], in [3], in assay [4], in assay [5] and in assay [6] was > 100 µM throughout. Further, the TGI in [7], in assay [8], in assay [9] and in assay [10] was > 100 µM in each case.
As for `Cc1cc(C#Cc2ccccc2)ccc1-n1c(/C=C/c2ccc(O)cc2)nc2ccccc2c1=O`, the GI50 in assay [1] was 3.33 µM; in [2], 2.5 µM; in [3], 2.06 µM; in assay [4], 2.66 µM; in assay [5], 3.3 µM; in assay [6], 3.17 µM. Moreover, the GI50 in assay [7] was 3.26 µM; in [8], 2.62 µM; in [9] it was 2.12 µM; in assay [10] it was 4.18 µM. In addition, the TGI in assay [1] worked out at 16.6 µM; in [2], 7.26 µM; in assay [3], 7.65 µM; in [4] it was 11 µM; in [5], 36.5 µM; in assay [6] it was 22.7 µM. In addition, the TGI in assay [7] was > 100 µM; in assay [8] it was 32.8 µM; in assay [9], 7.31 µM; in [10], 56.3 µM.
`C=C(C)[C@@H]1CC[C@]2(C#N)CC[C@]3(C)[C@H](CC[C@@H]4[C@@]5(C)CCCNC(C)(C)[C@@H]5CC[C@]43C)[C@@H]12`: the GI50 in assay [1] is 1.64 µM; in assay [2] it was 2.69 µM; in assay [3], 2.41 µM; in [4] it was 1.75 µM; in assay [5], 3.2 µM; in assay [6], 2.16 µM. The GI50 in assay [7] is 2.73 µM; in assay [8], 2.04 µM; in assay [9], 1.61 µM; in assay [10], 2.27 µM. Moreover, the TGI came out at 3.1 µM in assay [1]; 11.3 µM in assay [2]; 7.92 µM in assay [3]; 3.19 µM in [4]; 11.5 µM in assay [5]; 4.44 µM in assay [6]. Also, the TGI in assay [7] stood at 9.38 µM; in [8], 4.54 µM; in assay [9], 3.2 µM; in assay [10], 4.3 µM.
With `Cc1ccc(S(=O)(=O)ON=C2CC(c3ccccc3)N(C)C(c3ccccc3)C2)cc1` (centres undefined), the TGI is 54.7 µM and 57.3 µM in [1]; 43.5 µM and 46.7 µM in [2]; 35.3 µM and 49.1 µM in assay [3]; 29.6 µM and 27.5 µM in assay [4]; 71.5 µM and 44.9 µM in assay [5]; 38.4 µM and 40.3 µM in assay [6]. Also, the TGI in [7] is > 100 µM; in assay [8], 49.1 µM and 48.5 µM; in [9] it was 78.1 µM and 66.4 µM; in assay [10] it was 52.2 µM and 58 µM.
